Consider nine molecules from US8119380B2, “Methods and materials for making and using transgenic dicamba-degrading organisms” (Board of Regents of University of Nebraska, priority 1997, dated 2012).

“And” between values parts separate entries of the source, which are not always exact repeats. Equal entries are not always repeated.

Broadly, the Km is the substrate concentration at which the rate is half of its maximum.

Data set [1] deals with dicamba O-demethylase. Format: biochemical. To be noted: mixture of three partially purified components, 30 minutes at 30° C.; 0.5 mM NADH, 0.5 mM NADPH, 10 mM MgCl2, 0.5 mM FeSO4, 0.2 mM FAD, 0.2 mM FMN. The procedure:
(§1) Enzyme assays. […] At specific times, the reactions were stopped by adding 50 μl of 5% (vol/vol) H2SO4.
(§2) The solvent system for running the TLC was chloroform-ethanol-acetic acid (85:10:5 [vol/vol/vol]). The resolved reaction products were visualized and quantified by exposing the TLC plate to a phosphor screen for 24 hours and then scanning the screen in a PhosphorImager SF (Molecular Dynamics, Sunnyvale, Calif.). […] Specific activities were based on the total protein concentration of the assay mixture.
(§3) When a single component was assayed, the other two components were provided in excess.
(§4) Component and cofactor requirements. […] Samples were applied to a Q-Sepharose (Fast Flow) fast protein liquid chromatography column (Pharmacia) in buffer A and eluted with a 100-ml linear gradient of 0 to 0.6 M KCl (for the oxygenase component) or 0 to 1.0 M KCl (for the ferredoxin and reductase components) in 1.5-ml fractions. Appropriate pooled fractions from separate columns for oxygenase purification (fractions 29 to 37), for ferredoxin purification (fractions 30 to 37), or for reductase purification (fractions 26 to 38) were used for the determination of component and cofactor requirements.
(§5) The three components were assayed for O-demethylase activity in various combinations to determine component requirements.
(§6) The amounts of partially purified protein (provided in an optimized ratio) in the reaction mixtures were 85 μg of oxygenase, 55 μg of ferredoxin and 50 μg of reductase. The concentration of cofactors used in the reaction mixtures were 0.5 mM NADH, 0.2 mM FAD, 0.5 mM FeSO4, 10 mM MgCl2, 0.5 mM NADPH, and 0.2 mM FMN.

The next data set relates to plants. To be noted: cited from earlier work.
For data set [2], the target named is T1, dicamba O-demethylase (Stenotrophomonas maltophilia, UniProt Q5S3I3).
T1 construct: partially purified O-demethylase enzyme [the 40%-70% (w/v) (NH4)2SO4 fraction from a cleared cell lysate]; endogenous in cells; host or cells: Pseudomonas maltophilia strain DI-6 (cleared cell lysate, ammonium sulfate cut, or Phenyl-/Q-Sepharose fractions)
T1 sequence (Q5S3I3 2-339): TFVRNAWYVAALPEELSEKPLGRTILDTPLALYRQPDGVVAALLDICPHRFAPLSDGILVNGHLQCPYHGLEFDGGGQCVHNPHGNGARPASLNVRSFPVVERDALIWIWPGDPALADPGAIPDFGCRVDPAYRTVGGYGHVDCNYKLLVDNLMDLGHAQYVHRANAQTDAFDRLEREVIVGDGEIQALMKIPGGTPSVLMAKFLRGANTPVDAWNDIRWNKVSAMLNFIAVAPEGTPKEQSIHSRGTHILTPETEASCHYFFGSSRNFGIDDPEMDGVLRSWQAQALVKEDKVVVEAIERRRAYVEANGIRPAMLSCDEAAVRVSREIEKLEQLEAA
Format: biochemical. The following applies: mixed with excess amounts of components I and III; 55 μg partially purified component II or 100 μg highly purified Clostridium ferredoxin. The protocol:
as §1, §2, §3, §4, §5, §6

For a further data set, the system named is COc1c(Cl)ccc(Cl)c1C(=O)O. In words: cells, lysate or membranes named. The following applies: other: partially purified O-demethylase (40%-70% ammonium sulfate fraction), pH 7.0, 30° C., Michaelis-Menten/Lineweaver-Burk fit, duplicate experiments.
Data set [3] has as its target dicamba O-demethylase (Stenotrophomonas maltophilia, UniProt Q5S3I3). To be noted: cleared cell lysate, less than 1 ppm oxygen, 30° C., within 1 hour.
Procedure: Oxygen requirement. […] The procedures for displacement of oxygen from the reaction mixture were performed at 4° C. Reaction mixtures lacking enzyme were placed in a vial and sealed with a rubber stopper. For displacement of oxygen, the vial was evacuated twice by vacuum and flushed each time with nitrogen. After a third evacuation, the vial was flushed with 90% nitrogen plus 10% hydrogen. The enzyme solution was likewise purged of oxygen (with care taken not to bubble the enzyme solution). Both the reaction mixtures and enzyme solutions were transferred into an anaerobic chamber (95% N2-5% H2 atmosphere). Two hundred forty microliters of cleared cell lysate was injected through the rubber stopper with a microsyringe and gently mixed with 960 μl of oxygen-free reaction mixture. Reactions were carried out at 30° C.
A short description of data set [4]: Reductase assays (reduction of cytochrome c or DCIP in the presence of NADH). Format: biochemical. The protocol: The reaction contained 0.5 mM NADH, 0.2 mM FAD (flavin adenine dinucleotide), 50 μM DCIP, 20 mM Tris buffer (pH 8.0), and 10-100 μl of enzyme sample in a total volume of 1 ml. The change in absorbance at 600 nm with time was measured at room temperature. Specific activity was calculated using an extinction coefficient at 600 nm of 21.0 mM^−1cm^−1 for reduced DCIP. Specific activity was expressed as nmol DCIP reduced min^−1 mg^−1 of protein.
In addition, an in situ DCIP assay was used to detect and locate the reductase activity in protein preparations separated on isoelectric focusing (IEF) gels. After electrophoresis of the proteins on an IEF gel, lanes sliced from the gel were washed with 20 ml of cold 20 mM Tris-HCl buffer (pH 8.0). Low melting agarose was dissolved by heating in 10 ml of 20 mM Tris-HCl buffer (pH 8.0) at a final concentration of 1.5% (w/v). When the agarose cooled to near room temperature, it was supplemented with 0.2 mM FAD, 50 μM DCIP, and 0.5 mM NADH. The assay mixture was poured onto a glass plate and allowed to solidify. The gel piece was placed on top of the solidified reaction mixture and allowed to set at room temperature for 15 minutes. If the gel slice contained a protein with reductase activity, a colorless band of reduced DCIP was generated in the blue background of DCIP.

Turning to `NC(=O)C1=CN([C@@H]2O[C@H](COP(=O)(O)OP(=O)(O)OC[C@H]3O[C@@H](n4cnc5c(N)ncnc54)[C@H](O)[C@@H]3O)[C@@H](O)[C@H]2O)C=CC1` [NADH, beta-nicotinamide adenine dinucleotide, reduced form], the “cofactor effect on dicamba O-demethylase activity” value (“cofactor effect” for short) with dicamba O-demethylase [1] is “markedly more effective than NADPH”. Take `O=C(O)c1c(Cl)ccc(Cl)c1O` [3,6-DCSA, 3,6-dichlorosalicylic acid]: the herbicidal activity entry in the data set on plants was “no herbicidal activity”.

In the case of `NC(=O)C1=CN([C@@H]2O[C@H](COP(=O)(O)OP(=O)(O)OC[C@H]3O[C@@H](n4cnc5c(N)ncnc54)[C@H](OP(=O)(O)O)[C@@H]3O)[C@@H](O)[C@H]2O)C=CC1` [NADPH], the “cofactor effect” value with dicamba O-demethylase [1] is on record as “supported enzyme activity”. As for “ferredoxin from Clostridium: highly purified ferredoxin from Clostridium pasteurianum (AYKIADSCVSCGACASECPVNAISQGDSIFVIDADTCIDCGNCANVCPVGAPVQE; UniProt P00195 2-56, looked up)”, the “rate of conversion of dicamba to 3,6-DCSA (ferredoxin component)” value with dicamba O-demethylase [2] amounted to 0.6 nmol/min/mg. Turning to `Cc1cc2nc3c(=O)[nH]c(=O)nc-3n(C[C@H](O)[C@H](O)[C@H](O)COP(=O)(O)OP(=O)(O)OC[C@H]3O[C@@H](n4cnc5c(N)ncnc54)[C@H](O)[C@@H]3O)c2cc1C` [FAD, flavin adenine dinucleotide], the “cofactor effect” value in the data set on dicamba O-demethylase [1] was “little or no stimulation”. “dicamba O-demethylase (Stenotrophomonas maltophilia)”: the Km with COc1c(Cl)ccc(Cl)c1C(=O)O is 9.9 ± 3.9 µM and 10 µM. As for `Cc1cc2nc3c(=O)[nH]c(=O)nc-3n(C[C@H](O)[C@H](O)[C@H](O)COP(=O)(O)O)c2cc1C` [FMN, flavin mononucleotide], the “cofactor effect” value in the data set on dicamba O-demethylase [1] is on record as “little or no stimulation”.

Regarding `COc1c(Cl)ccc(Cl)c1C(=O)O` [dicamba, 3,6-dichloro-2-methoxybenzoic acid], on dicamba O-demethylase [3], the “conversion of dicamba to 3,6-DCSA under anaerobic conditions” value is “virtually no conversion”.

B1: component I: oxygenase component of dicamba O-demethylase (protein)
chain: MTFVRNAWYVAALPEELSEKPLGRTILDTPLALYRQPDGVVAALLDICPHRFAPLSDGILVNGHLQCPYHGLEFDGGGQCVHNPHGNGARPASLNVRSFPVVERDALIWIWPGDPALADPGAIPDFGCRVDPAYRTVGGYGHVDCNYKLLVDNLMDLGHAQYVHRANAQTDAFDRLEREVIVGDGEIQALMKIPGGTPSVLMAKFLRGANTPVDAWNDIRWNKVSAMLNFIAVAPEGTPKEQSIHSRGTHILTPETEASCHYFFGSSRNFGIDDPEMDGVLRSWQAQALVKEDKVVVEAIERRRAYVEANGIRPAMLSCDEAAVRVSREIEKLEQLEAA
modifications: Pseudomonas maltophilia DI-6
notes: oxygenase component of dicamba O-demethylase
For B1, the “reductase activity with cytochrome c or DCPIP in the presence of NADH” value in data set [4] was “Neither component I nor component II showed activity”.
